According to patent US20050197350A1, “Novel quinoline, tetrahydroquinazoline, and pyrimidine derivatives and methods of treatment related to the use thereof” (TAISHO PHARMACEUTICAL CO., LTD., priority 2003, published 2005):
Where two headings read alike, the source gives them in different places.

System: MCH receptors
Assay: MCH receptor activity class (method not given)
[1] = class by percent of control at 10^-7 M or IC50
[2] = class by percent of control at 10^−7 M or IC50
[3] = MCH receptor activity class 1-3 (percent of control at 10^-7 M or IC50)
[4] = MCH receptor, class by percent of control at 10^-7 M or IC50
[5] = class 1-3 by percent of control at 10^-7 M or IC50

Q: For `CN(C)c1nc(N[C@H]2CC[C@@H](NC(=S)NCc3cccc4ccccc34)CC2)nc2c1CCCC2` [compound 1767], which class [1] is on record?
A: 3 (Class 3 The value of percent of control at 10^−7 M was more than 60% or the value of IC50 was more than 200 nM.)

Q: For `Cc1cnc(NC[C@H]2CC[C@@H](NC(=O)c3ccc(F)c(F)c3)CC2)nc1N(C)C` [compound 2714], which class [2] is on record?
A: 3 (Class 3 The value of percent of control at 10^−7 M was more than 60% or the value of IC50 was more than 200 nM.)

Q: `COc1c(Br)cc(Br)cc1CNC[C@H]1CC[C@@H](Nc2nccc(N(C)C)n2)CC1` [compound 1292] was tested. Which class [1] did it give?
A: 1 (Class 1: The value of percent of control at 10^−7 M was less than 40% or the value of IC50 was less than 50 nM.)

Q: For `COc1ccc(NC(=S)N[C@H]2CC[C@@H](Nc3nccc(N(C)C)n3)CC2)c(C)c1` [compound 2341], which class [3] is on record?
A: 3 (Class 3 The value of percent of control at 10^−7 M was more than 60% or the value of IC50 was more than 200 nM.)

Q: For `CN(C)c1nc(N[C@H]2CC[C@@H](NC(=S)Nc3cc(Cl)cc(Cl)c3)CC2)nc2c1CCCC2` [compound 1981], which class [4] is on record?
A: 3 (Class 3 The value of percent of control at 10^−7 M was more than 60% or the value of IC50 was more than 200 nM.)

Q: Which class [4] does the source give for `CN(C)c1nc(N[C@H]2CC[C@@H](NC(=S)Nc3c(Cl)c(Cl)cc(Cl)c3Cl)CC2)nc2c1CCCC2` [compound 2031, N-(cis-4-{[4-(dimethylamino)-5,6,7,8-tetrahydroquinazolin-2-yl]amino}cyelohexyl)-N′-(2,3,5,6-tetrachlorophenyl)thiourea] here?
A: 3 (Class 3 The value of percent of control at 10^−7 M was more than 60% or the value of IC50 was more than 200 nM.)

Q: With `CN(C)c1ccnc(N[C@H]2CC[C@@H](CNC(=O)c3cn(Cc4ccccc4)c4ccccc34)CC2)n1` [compound 942] as the compound, how does the class [1] read?
A: 3 (Class 3 The value of percent of control at 10^−7 M was more than 60% or the value of IC50 was more than 200 nM.)

Q: `CN(C)c1cc(N[C@H]2CC[C@@H](CNC(=O)CCc3ccccc3O)CC2)nc2ccccc12` [compound 794] was tested. Which class [1] did it give?
A: 3 (Class 3 The value of percent of control at 10^−7 M was more than 60% or the value of IC50 was more than 200 nM.)

Q: Which class [4] does the source give for `CCN(CC)CCCNC(=S)N[C@H]1CC[C@@H](Nc2nc3c(c(N(C)C)n2)CCCC3)CC1` [compound 2073] here?
A: 3 (Class 3 The value of percent of control at 10^−7 M was more than 60% or the value of IC50 was more than 200 nM.)

Q: Which class [1] does the source give for `CCc1ccc(NC(=O)N[C@H]2CC[C@@H](Nc3nc4c(c(N(C)C)n3)CCCC4)CC2)cc1` [compound 1824] here?
A: 3 (Class 3 The value of percent of control at 10^−7 M was more than 60% or the value of IC50 was more than 200 nM.)

Q: `CN(C)c1ccnc(N[C@H]2CC[C@@H](CNC(=O)c3ccc(Cl)c([N+](=O)[O-])c3)CC2)n1` [compound 372] was tested. Which class [1] did it give?
A: 2 (Class 2: The value of percent of control at 10^−7 M was from 40% to 60% or the value of IC′50 was from 50 nM to 200 nM.)

Q: Which class [4] does the source give for `CN(C)c1cc(N[C@H]2CC[C@@H](NC(=O)c3cccc(C(F)(F)F)c3)CC2)nc2ccccc12` [compound 116] here?
A: 3 (Class 3 The value of percent of control at 10^−7 M was more than 60% or the value of IC50 was more than 200 nM.)

Q: With `COc1ccc(CN[C@H]2CC[C@@H](Nc3cc(N(C)C)c4ccccc4n3)CC2)c(OC)c1` [compound 1094] as the compound, how does the class (activity class per percent of control at 10^-7 M or IC50) read?
A: 3 (Class 3 The value of percent of control at 10^−7 M was more than 60% or the value of IC50 was more than 200 nM.)

Q: With `CN(C)c1cc(N[C@H]2CC[C@@H](CNCc3ccsc3)CC2)nc2ccccc12` [compound 1183] as the compound, how does the class [1] read?
A: 3 (Class 3 The value of percent of control at 10^−7 M was more than 60% or the value of IC50 was more than 200 nM.)

Q: Which class [1] does the source give for `CCOC(=O)[C@H](Cc1ccccc1)NC(=O)N[C@H]1CC[C@@H](Nc2nccc(N(C)C)n2)CC1` (relative stereo) [compound 2250] here?
A: 3 (Class 3 The value of percent of control at 10^−7 M was more than 60% or the value of IC50 was more than 200 nM.)

Q: For `CN(C)c1nc(N[C@H]2CC[C@@H](NC(=S)Nc3cccc(C#N)c3)CC2)nc2c1CCCC2` [compound 1983], which class [4] is on record?
A: 3 (Class 3 The value of percent of control at 10^−7 M was more than 60% or the value of IC50 was more than 200 nM.)

Q: With `CC(NC(=S)N[C@H]1CC[C@@H](Nc2nc3c(c(N(C)C)n2)CCCC3)CC1)c1ccc(F)cc1` (relative stereo) [compound 2014] as the compound, how does the class [4] read?
A: 3 (Class 3 The value of percent of control at 10^−7 M was more than 60% or the value of IC50 was more than 200 nM.)

Q: `CN(C)c1cc(N[C@H]2CC[C@@H](NC(=O)/C=C/c3ccc([N+](=O)[O-])cc3)CC2)nc2ccccc12` [compound 79] was tested. Which class [4] did it give?
A: 3 (Class 3 The value of percent of control at 10^−7 M was more than 60% or the value of IC50 was more than 200 nM.)

Q: How did the class [1] turn out when `Cc1ccc(-c2ccc(C(=O)N[C@H]3CC[C@@H](Nc4nccc(N(C)C)n4)CC3)o2)c([N+](=O)[O-])c1` [compound 826, N-(cis-4-{[4-(dimethylamino)pyrimidin-2-yl]amino}cyclohexyl)-5-(4-methyl-2-nitrophenyl)-2-furamide] was run?
A: 2 (Class 2: The value of percent of control at 10^−7 M was from 40% to 60% or the value of IC′50 was from 50 nM to 200 nM.)

Q: For `CN(C)c1ccnc(N[C@H]2CC[C@@H](NCc3cccc4ccccc34)CC2)n1` [compound 1240], which class [1] is on record?
A: 3 (Class 3 The value of percent of control at 10^−7 M was more than 60% or the value of IC50 was more than 200 nM.)

Q: Which class [2] does the source give for `Cc1cccc(CNC(=O)[C@H]2CC[C@@H](Nc3nc(C)cc(N(C)C)n3)CC2)c1` [compound 2822, cis-4-{[4-(dimethylamino)-6-methylpyrimidin-2-yl]amino}-N-(3-methylbenzyl)cyclohexanecarboxamide] here?
A: 1 (Class 1: The value of percent of control at 10^−7 M was less than 40% or the value of IC50 was less than 50 nM.)

Q: For `COC(=O)c1scc(C)c1NC(=S)N[C@H]1CC[C@@H](Nc2nccc(N(C)C)n2)CC1` [compound 2356], which class [3] is on record?
A: 3 (Class 3 The value of percent of control at 10^−7 M was more than 60% or the value of IC50 was more than 200 nM.)

Q: With `Cc1cccc(C(C)(C)C)c1NC(=O)NC[C@H]1CC[C@@H](Nc2nc3c(c(N(C)C)n2)CCCC3)CC1` [compound 2475, N-(2-tert-butyl-6-methylphenyl)-N′-[(cis-4-{[4-(dimethylamino)-5,6,7,8-tetrahydroquinazolin-2-yl]amino}cyclohexyl)methyl]urea] as the compound, how does the class [3] read?
A: 1 (Class 1: The value of percent of control at 10^−7 M was less than 40% or the value of IC50 was less than 50 nM.)

Q: With `CN(C)c1nc(N[C@H]2CC[C@@H](CNC(=O)c3ccc(Cl)c(Cl)c3)CC2)nc2c1CCCC2` [compound 593] as the compound, how does the class [5] read?
A: 3 (Class 3 The value of percent of control at 10^−7 M was more than 60% or the value of IC50 was more than 200 nM.)

Q: For `CCOC(=O)c1[nH]c2cc(Cl)cc(Cl)c2c1CN[C@H]1CC[C@@H](Nc2nc3c(c(N(C)C)n2)CCCC3)CC1` [compound 1357], which class [1] is on record?
A: 1 (Class 1: The value of percent of control at 10^−7 M was less than 40% or the value of IC50 was less than 50 nM.)

Q: For `Cc1ccc(NC(=S)N[C@H]2CC[C@@H](Nc3cc(N(C)C)c4ccccc4n3)CC2)c(Br)c1` [compound 2278], which class [1] is on record?
A: 3 (Class 3 The value of percent of control at 10^−7 M was more than 60% or the value of IC50 was more than 200 nM.)

Q: With `COc1cc(NC(=S)N[C@H]2CC[C@@H](Nc3nc4c(c(N(C)C)n3)CCCC4)CC2)c(OC)cc1Cl` [compound 1788] as the compound, how does the class [1] read?
A: 2 (Class 2: The value of percent of control at 10^−7 M was from 40% to 60% or the value of IC′50 was from 50 nM to 200 nM.)

Q: How did the class [1] turn out when `CN(C)c1nc(N[C@H]2CC[C@@H](CNC(=O)Nc3ccc(F)c(F)c3)CC2)nc2c1CCCC2` [compound 2494] was run?
A: 3 (Class 3 The value of percent of control at 10^−7 M was more than 60% or the value of IC50 was more than 200 nM.)

Q: With `Cc1cnc(N[C@H]2CC[C@@H](NCc3cccc(Br)c3)CC2)nc1N(C)C` [compound 2999] as the compound, how does the class [2] read?
A: 3 (Class 3 The value of percent of control at 10^−7 M was more than 60% or the value of IC50 was more than 200 nM.)

Q: How did the class turn out when `Cc1cc(N[C@H]2CC[C@@H](NC(=O)c3ccc(Br)o3)CC2)nc2ccccc12` [Example 2557, 5-bromo-N-{cis-4-[(4-methylquinolin-2-yl)amino]cyclohexyl}-2-furamide] was run?
A: 1

Q: Which class [1] does the source give for `Cc1cc(C(=O)NC[C@H]2CC[C@@H](Nc3cc(N(C)C)c4ccccc4n3)CC2)ccc1[N+](=O)[O-]` [compound 803, N-[(cis-4-{[4-(dimethylamino)quinolin-2-yl]amino}cyclohexyl)methyl]-3-methyl-4-nitrobenzamide] here?
A: 3 (Class 3 The value of percent of control at 10^−7 M was more than 60% or the value of IC50 was more than 200 nM.)

Q: How did the class [2] turn out when `Cc1cnc(N[C@H]2CC[C@@H](NC(=O)c3ccc(Br)cc3)CC2)nc1N(C)C` [compound 2911, 4-bromo-N-(cis-4-{[4-(dimethylamino)-5-methylpyrimidin-2-yl]amino}cyclohexyl)benzamide] was run?
A: 1 (Class 1: The value of percent of control at 10^−7 M was less than 40% or the value of IC50 was less than 50 nM.)

Q: `Cc1ccc(CN[C@H]2CC[C@@H](Nc3ncc(C)c(N(C)C)n3)CC2)cc1` [compound 2996] was tested. Which class [2] did it give?
A: 3 (Class 3 The value of percent of control at 10^−7 M was more than 60% or the value of IC50 was more than 200 nM.)

Q: How did the class [4] turn out when `CN(C)c1cc(N[C@H]2CC[C@@H](NC(=O)c3c(F)c(F)c(F)c(F)c3F)CC2)nc2ccccc12` [compound 130] was run?
A: 3 (Class 3 The value of percent of control at 10^−7 M was more than 60% or the value of IC50 was more than 200 nM.)

Q: With `CN(C)c1cc(N[C@H]2CC[C@@H](NC(=S)Nc3ccc(Cl)cc3C(F)(F)F)CC2)nc2ccccc12` [compound 2294] as the compound, how does the class [3] read?
A: 3 (Class 3 The value of percent of control at 10^−7 M was more than 60% or the value of IC50 was more than 200 nM.)

Q: With `CN(C)c1nc(N[C@H]2CC[C@@H](CNC(=O)OCc3ccccc3)CC2)nc2c1CCCC2` [compound 617] as the compound, how does the class [1] read?
A: 3 (Class 3 The value of percent of control at 10^−7 M was more than 60% or the value of IC50 was more than 200 nM.)

Q: Which class [1] does the source give for `CN(C)c1ccnc(N[C@H]2CC[C@@H](NC(=O)/C=C/c3ccc([N+](=O)[O-])cc3)CC2)n1` [compound 297] here?
A: 3 (Class 3 The value of percent of control at 10^−7 M was more than 60% or the value of IC50 was more than 200 nM.)

Q: With `CN(C)c1ccnc(N[C@H]2CC[C@@H](CNC(=O)Cc3ccc(F)cc3)CC2)n1` [compound 413] as the compound, how does the class [5] read?
A: 3 (Class 3 The value of percent of control at 10^−7 M was more than 60% or the value of IC50 was more than 200 nM.)
